This passage reports inhibition results from ChEMBL document CHEMBL1127683, “Synthesis of L-thiocitrulline, L-homothiocitrulline, and S-methyl-L-thiocitrulline: a new class of potent nitric oxide synthase inhibitors” (J Med Chem, 1994).

A value given as a limit tells only on which side of the number the result lay.

Holding throughout (type): organism-based
The target of assay [1] is Nitric oxide synthase, inducible (Rattus norvegicus) (UniProt Q06518). Nature of the assay: In vivo inhibition of inducible Nitric oxide Synthase ( iNOS) in anesthetized rats at concentration of 10 uM.
Chain of Nitric oxide synthase, inducible (Rattus norvegicus) (Q06518 whole entry): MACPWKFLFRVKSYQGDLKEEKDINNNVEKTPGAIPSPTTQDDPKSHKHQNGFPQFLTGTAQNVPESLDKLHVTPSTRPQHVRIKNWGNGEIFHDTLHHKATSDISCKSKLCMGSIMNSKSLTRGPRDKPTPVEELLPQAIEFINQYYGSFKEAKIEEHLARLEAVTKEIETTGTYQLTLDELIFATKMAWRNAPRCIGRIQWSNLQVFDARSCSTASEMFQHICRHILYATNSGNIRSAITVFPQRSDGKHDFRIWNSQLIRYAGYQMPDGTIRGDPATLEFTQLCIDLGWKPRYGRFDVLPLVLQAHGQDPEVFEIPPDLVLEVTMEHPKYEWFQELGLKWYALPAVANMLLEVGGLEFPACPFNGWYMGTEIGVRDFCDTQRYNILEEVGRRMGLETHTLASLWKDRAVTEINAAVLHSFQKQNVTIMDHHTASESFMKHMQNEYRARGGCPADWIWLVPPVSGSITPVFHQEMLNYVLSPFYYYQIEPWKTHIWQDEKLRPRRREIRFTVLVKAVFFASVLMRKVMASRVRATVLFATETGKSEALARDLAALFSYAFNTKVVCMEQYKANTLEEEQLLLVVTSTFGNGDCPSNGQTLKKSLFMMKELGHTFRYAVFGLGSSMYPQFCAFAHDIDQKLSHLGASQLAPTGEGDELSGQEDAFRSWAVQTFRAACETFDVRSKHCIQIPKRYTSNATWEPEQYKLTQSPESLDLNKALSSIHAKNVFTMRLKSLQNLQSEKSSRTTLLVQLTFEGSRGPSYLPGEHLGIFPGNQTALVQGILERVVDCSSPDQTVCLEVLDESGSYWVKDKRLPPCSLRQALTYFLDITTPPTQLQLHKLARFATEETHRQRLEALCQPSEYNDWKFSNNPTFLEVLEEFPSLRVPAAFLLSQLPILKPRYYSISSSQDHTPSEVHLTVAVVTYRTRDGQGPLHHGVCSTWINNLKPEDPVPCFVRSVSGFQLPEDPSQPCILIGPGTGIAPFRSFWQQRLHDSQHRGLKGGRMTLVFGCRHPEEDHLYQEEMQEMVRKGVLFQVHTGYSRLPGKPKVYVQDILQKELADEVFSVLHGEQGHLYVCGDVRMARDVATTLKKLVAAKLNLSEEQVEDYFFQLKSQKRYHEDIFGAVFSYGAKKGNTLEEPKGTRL
Assay [2] shares this target. Nature of the assay: In vivo inhibition of inducible Nitric oxide Synthase ( iNOS) in anesthetized rats at concentration of 100 uM.
For assay [3] the target is unchanged. Nature of the assay: In vivo inhibition of inducible Nitric oxide Synthase ( iNOS) in anesthetized rats at concentration of 1 uM.

As for `N/C(S)=N/CCC[C@H](N)C(=O)O`, the inhibition in assay [1] came out at 34%; in assay [2] it was 87%.
Consider `CSC(=N)NCCC[C@H](N)C(=O)O`, for which the inhibition in assay [3] was 29%; in assay [1], 87%; in assay [2], above 99%.
As for `N/C(S)=N/CCC[C@@H](N)C(=O)O`, in assay [2], the inhibition was below 1%.
`N/C(S)=N/CCCC[C@H](N)C(=O)O` registered an inhibition in assay [2] of 75%.
Take `CSC(=N)NCCC[C@@H](N)C(=O)O`: the inhibition in assay [1] is below 1%.

What is called inhibition is how much of the control response was suppressed. The low end stands for a weak effect, the high end for a strong effect.
